Source: patent publication US20190185567A1, “COMBINATIONS FOR THE TREATMENT OF CANCER” (IGNYTA, INC., priority 2016, published 2019)

Legend:
[1] = Assessment of side effects (tolerability, mortality, body weight); assay type: in vivo; conditions: once daily for 15 days (Days 3-17); for mean body weight loss: highest at study termination
Description: Animals were weighed on each day of treatment. Individual body weights were recorded three times weekly.
In this report, a dosage level is described as tolerated if treatment-related weight loss (during and two weeks after treatment) is <20% and mortality during this period in the absence of potentially lethal tumor burdens is <10%.
Upon death or euthanasia, all animals were necropsied to provide a general assessment of potential cause of death and perhaps target organs for toxicity. The presence or absence of metastases was also noted.

[2] = tested on: hematopoietic cell subsets; experiment: Hematopoietic cell subset mean percentages in tumor and spleen, subjective comparison to the Control Group; assay type: in vivo, Balb/c mice; conditions: once daily (Days 3-17); for CD45+ cells that expressed PD-L1, increase vs Control Group: spleen
[3] = tested on: 4T1-Luc2-1A4 cells; experiment: 4T1-Luc2-1A4 mammary fat pad tumor model: tumor burden by caliper and BLI, metastases; assay type: in vivo, Balb/c mice; conditions: once daily for 15 days (Days 3-17); for Day 14 T/C (whole body BLI) / Day 14 median T/C (caliper measurements): p>0.05
Description: Female Envigo Balb/c mice (BALB/cAnNHsd) were used in this study. They were 6-7 weeks old on day 1 of the experiment. The animals were fed irradiated Harlan 2918.15 Rodent Diet and water ad libitum. Animals were housed in static cages with Bed-O'Cobs™ bedding inside Biobubble® Clean Rooms that provide H.E.P.A filtered air into the bubble environment at 100 complete air changes per hour. All treatments, imaging, body weight determinations, and tumor measurements were carried out in the bubble environment. The environment was controlled to a temperature range of 70°±2° F. and a humidity range of 30-70%.
4T1-Luc2-1A4 cells were obtained from PerkinElmer. They were grown in RPMI 1640 medium which was modified with 1% 100 mM Na pyruvate, 1% 1M HEPES buffer, 2.5 g/L glucose solution and supplemented with 10% non-heat-inactivated Fetal Bovine Serum (FBS) and 1% 100X Penicillin/Streptomycin/L-Glutamine (PSG). The growth environment was maintained in an incubator with a 5% CO2 atmosphere at 37° C. When expansion was complete, the cells (passage 5) were trypsinized using 0.25% trypsin-EDTA solution. Following cell detachment, the trypsin was inactivated by dilution with complete growth medium and any clumps of cells were separated by pipetting. The cells were centrifuged at 200 rcf for 8 minutes at 8° C., the supernatant was aspirated, and the pellet was re-suspended in cold Dulbecco's Phosphate Buffered Saline (DPBS) by pipetting. An aliquot of the homogeneous cell suspension was diluted in a trypan blue solution and counted using a Luna automated cell counter. The pre-implantation cell viability was 95%. The cell suspension was centrifuged at 200 rcf for 8 minutes at 8° C. The supernatant was aspirated and the cell pellet was re-suspended in cold 50% serum-free medium 50% Matrigel® to generate a final concentration of 1.0E+07 trypan-excluding cells/mL. The cell suspension was maintained on wet ice during implantation. Following implantation, an aliquot of the remaining cells was diluted with a trypan blue solution and counted to determine the post-implantation cell viability (95%).
Test animals were implanted subcutaneously into the mammary fat pad (MFP#4) on Day 0 with 5.0E+05 cells in 50 μL of serum free media in 50% Matrigel® using a 27-gauge needle and 1 mL syringe.
All mice were sorted into study groups based on body weight. The mice were distributed to ensure that the mean body weight for all groups was within 10% of the overall mean for the study population (group range 16.8-17.2 g). Treatment began on Day 3, prior to the tumors being palpable. All mice were dosed 0.2 mL/20 g. • Group 1: Vehicle Control (50% PEG400; 50% oleic acid) PO, once daily for 15 days (Days 3-17); • Group 2: N-[4-[(6,7-dimethoxy-4-quinolinyl)oxy]-3-fluorophenyl]-3-(4-fluorophenyl)-1,2,3,4-tetrahydro-1-(1-methylethyl)-2,4-dioxo-5-pyrimidinecarboxamide, 30 mg/kg PO, once daily for 15 days (Days 3-17); • Group 3: N-[4-[(6,7-dimethoxy-4-quinolinyl)oxy]-3-fluorophenyl]-3-(4-fluorophenyl)-1,2,3,4-tetrahydro-1-(1-methylethyl)-2,4-dioxo-5-pyrimidinecarboxamide, 10 mg/kg PO, once daily for 15 days (Days 3-17); • Group 4: N-[4-[(6,7-dimethoxy-4-quinolinyl)oxy]-3-fluorophenyl]-3-(4-fluorophenyl)-1,2,3,4-tetrahydro-1-(1-methylethyl)-2,4-dioxo-5-pyrimidinecarboxamide, 1 mg/kg PO, once daily for 15 days (Days 3-17); • Group 5: anti-CTLA-4 clone 9D9 antibody, 10 mg/kg IP, every third day for 2 treatments, then a 3 day rest for 2.5 weeks (Days 3, 6, 10, 13, 17) • Group 6: anti-CTLA-4 clone 9D9 antibody, 10 mg/kg IP, every third day for 2 treatments, then a 3 day rest for 2.5 weeks (Days 3, 6, 10, 13, 17), plus N-[4-[(6,7-dimethoxy-4-quinolinyl)oxy]-3-fluorophenyl]-3-(4-fluorophenyl)-1,2,3,4-tetrahydro-1-(1-methylethyl)-2,4-dioxo-5-pyrimidinecarboxamide, 30 mg/kg PO, once daily for 15 days (Days 3-17). […]

COc1cc2nccc(Oc3ccc(NC(=O)c4cn(C(C)C)c(=O)n(-c5ccc(F)cc5)c4=O)cc3F)c2cc1OC [N-[4-[(6,7-dimethoxy-4-quinolinyl)oxy]-3-fluorophenyl]-3-(4-fluorophenyl)-1,2,3,4-tetrahydro-1-(1-methylethyl)-2,4-dioxo-5-pyrimidinecarboxamide]
tolerability ([1]; 1 mg/kg PO): well-tolerated
treatment-related mortality ([1]; 1 mg/kg PO): no treatment-related mortality
mean body weight loss ([1]; 1 mg/kg PO): 2.1%
tolerability ([1]; 10 mg/kg PO): well-tolerated
treatment-related mortality ([1]; 10 mg/kg PO): no treatment-related mortality
mean body weight loss ([1]; 10 mg/kg PO): 4.2%
body weight change ([1]; 30 mg/kg PO): body weight gain
tolerability ([1]; 30 mg/kg PO): well-tolerated
treatment-related mortality ([1]; 30 mg/kg PO): no treatment-related mortality
NK cells that produced IFN-γ upon ex-vivo re-stimulation, increase vs Control Group ([2]; NK cells isolated from spleens, 30 mg/kg PO): 22%
NK cells that produced IFN-γ upon ex-vivo re-stimulation, increase vs Control Group ([2]; NK cells isolated from tumors, 30 mg/kg PO): 75%
CD45+ cells that expressed PD-L1, increase vs Control Group ([2]; 10 mg/kg PO): 8%
CD45+ cells that expressed PD-L1, increase vs Control Group ([2]; 30 mg/kg PO): 16%
CD45+ cells expressing PD-L1, reduction vs Control Group ([2]; tumor, 1 mg/kg PO): 14%
CD4+ T subset as a percent of total T cells, reduction vs Control Group ([2]; tumor, 10 mg/kg PO): 51%
CD45+ cells expressing PD-L1, reduction vs Control Group ([2]; tumor, 10 mg/kg PO): 5%
Treg subset as a percent of total T cells, reduction vs Control Group ([2]; tumor, 10 mg/kg PO): 61%
Tumor-derived cells that expressed CD45, increase vs Control Group ([2]; tumor, 10 mg/kg PO): 18%
CD4+ T subset as a percent of total T cells, reduction vs Control Group ([2]; tumor, 30 mg/kg PO): 54%
G-MDSC subset, reduction vs Control Group ([2]; tumor, 30 mg/kg PO): 18%
M2 MAC subset, increase vs Control Group ([2]; tumor, 30 mg/kg PO): 72%
Treg subset as a percent of total T cells, reduction vs Control Group ([2]; tumor, 30 mg/kg PO): 69%
Tumor-derived cells that expressed CD45, increase vs Control Group ([2]; tumor, 30 mg/kg PO): 14%
incidence of ex vivo lung metastases ([3]; 1 mg/kg PO): 100%
tumor free survivors ([3]; 1 mg/kg PO): 0%
incidence of axillary lymph node metastases based on in vivo imaging ([3]; 1 mg/kg PO, 8/14): 57%
Day 14 T/C (whole body BLI) ([3]; 1 mg/kg PO): 139%
Day 14 median T/C (caliper measurements) ([3]; 1 mg/kg PO): 131%
incidence of ex vivo lung metastases ([3]; 10 mg/kg PO): 100%
tumor free survivors ([3]; 10 mg/kg PO): 0%
incidence of axillary lymph node metastases based on in vivo imaging ([3]; 10 mg/kg PO, 2/14): 14%
Day 14 T/C (whole body BLI) ([3]; 10 mg/kg PO): 133%
Day 14 median T/C (caliper measurements) ([3]; 10 mg/kg PO): 100%
incidence of ex vivo lung metastases ([3]; 30 mg/kg PO): 100%
tumor free survivors ([3]; 30 mg/kg PO): no tumor free survivors
incidence of axillary lymph node metastases based on in vivo imaging ([3]; 30 mg/kg PO, 3/14): 21%
Day 14 T/C (whole body BLI) ([3]; 30 mg/kg PO): 54%
Day 14 median T/C (caliper measurements) ([3]; 30 mg/kg PO): 55%
